Measured values: US20050232915A1, “Matrix metalloproteinase inhibitors in combination with hypothermia and/or radiotherapy for the treatment of cancer” (priority 2002, published 2005)

Experiments:
Panc-1 cells [1] = experiment: Matrigel invasion assay after irradiation; type: cell-based, human; conditions: Panc-1, irradiation at 5 Gy, inhibitor at 5 and 10 μM added just before irradiation, 24 h
Method: The cells are irradiated with doses of 3, 5, or 10 Gy at room temperature using a ^137Cs source (Gamma Cell 40, Atomic Energy of Canada Ltd., Ontario, Canada) delivering 1.0 Gy/min.
Invasion of pancreatic cancer cells is measured by the invasion of cells through Matrigel-coated transwell inserts (Becton Dickinson, Franklin Lakes, N.J., USA) (Sato et al and Maehara et al ibid).
Briefly, transwell inserts with 8 μm pore are coated with Matrigel (40 μg/well, Becton Dickinson, Bedford, Mass., USA). Five hundred μl of cell suspension (1×10^5/ml) are added to the upper chambers. Same media of 750 μl are placed in the lower wells. Thereafter, the cells are irradiated and incubated for 24 h. Cells that have invaded to lower surface of the Matrigel-coated membrane are fixed with 70% ethanol, stained with H&E, and counted in five random fields under a light microscope.
(§1) Finally, we test whether a synthetic MMP inhibitor, N-hydroxy-2(R)-[[4 methoxyphenylsulfonyl](3-picolyl)amino]-3-methyl-butaneamide hydrochloride) monohydrate, could prevent the radiation-enhanced invasiveness. N-hydroxy-2(R)-[[4-methoxyphenylsulfonyl](3-picolyl)amino]-3-methyl-butaneamide hydrochloride) monohydrate is added to invasion chambers at final concentrations of 1, 5, and 10 μm just before irradiation.

MMP-2 [2] = target: T1, MMP-2 (Homo sapiens, UniProt P08253); experiment: Gelatin zymography of conditioned medium from Panc-1 cells; type: cell-based; conditions: 5 μM, Panc-1 conditioned medium
T1 construct: The conditioned medium either from non-irradiated or irradiated Panc-1 cells is concentrated to 10-fold; endogenous in cells; host or cells: Panc-1 cells (conditioned medium)
T1 sequence (P08253 110-660): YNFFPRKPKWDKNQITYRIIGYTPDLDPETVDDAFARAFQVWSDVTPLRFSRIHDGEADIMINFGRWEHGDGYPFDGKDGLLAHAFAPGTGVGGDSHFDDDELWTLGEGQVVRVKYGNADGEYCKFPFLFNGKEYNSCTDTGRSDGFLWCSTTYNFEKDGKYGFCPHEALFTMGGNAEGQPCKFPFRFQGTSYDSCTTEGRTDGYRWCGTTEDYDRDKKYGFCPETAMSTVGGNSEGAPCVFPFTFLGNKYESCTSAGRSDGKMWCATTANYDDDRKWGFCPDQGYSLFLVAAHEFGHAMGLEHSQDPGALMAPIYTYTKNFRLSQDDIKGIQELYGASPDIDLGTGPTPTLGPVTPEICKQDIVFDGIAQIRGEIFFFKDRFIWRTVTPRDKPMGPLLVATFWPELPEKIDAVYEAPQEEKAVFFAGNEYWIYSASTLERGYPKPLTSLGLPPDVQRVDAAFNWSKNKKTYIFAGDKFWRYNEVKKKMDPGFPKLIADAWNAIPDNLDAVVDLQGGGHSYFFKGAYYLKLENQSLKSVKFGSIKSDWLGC
Method: (§2) The conditioned medium either from non-irradiated or irradiated Panc-1 cells is concentrated to 10-fold with Centricon-10 (Amico, Beverly, Mass., USA). Samples are added to each lane and subjected to 10% SDS-polyacrylamide gel electrophoresis, using 10% polyacrylamide gel containing 1 mg/ml gelatin. After electrophoresis, the gel is washed in 2.5% Triton X-100, and incubated in 50 mM Tris-HCl buffer (pH8.0) containing 0.5 mM CaCl2 and 1 mM ZnCl2 for 20 hr at 37° C. The gel is stained with 1% Coomassie Brilliant Blue R-250 and destained with destaining buffer (5% acetic acid and 10% methanol).
(§3) To determine the role of gelatinases in the radiation-induced changes in invasive potential, we examine MMPs activity in Panc-1 cells before and after irradiation. Cells are incubated 24 h after irradiation and the conditioned medium is subjected to the gelatin zymography. Untreated Panc-1 cells secrete both latent and active forms of MMP-2 (72 kDa and 62 kDa gelatinases).
as §1

MMP-2 [3] = target: T2, MMP-2 (Homo sapiens, UniProt P08253); experiment: as above; type: cell-based; conditions: 5 μM, Panc-1 conditioned medium; remark: listed apart in the source
T2 construct: The conditioned medium either from non-irradiated or irradiated Panc-1 cells is concentrated to 10-fold; endogenous in cells; host or cells: Panc-1 cells (conditioned medium)
T2 sequence (P08253 30-660): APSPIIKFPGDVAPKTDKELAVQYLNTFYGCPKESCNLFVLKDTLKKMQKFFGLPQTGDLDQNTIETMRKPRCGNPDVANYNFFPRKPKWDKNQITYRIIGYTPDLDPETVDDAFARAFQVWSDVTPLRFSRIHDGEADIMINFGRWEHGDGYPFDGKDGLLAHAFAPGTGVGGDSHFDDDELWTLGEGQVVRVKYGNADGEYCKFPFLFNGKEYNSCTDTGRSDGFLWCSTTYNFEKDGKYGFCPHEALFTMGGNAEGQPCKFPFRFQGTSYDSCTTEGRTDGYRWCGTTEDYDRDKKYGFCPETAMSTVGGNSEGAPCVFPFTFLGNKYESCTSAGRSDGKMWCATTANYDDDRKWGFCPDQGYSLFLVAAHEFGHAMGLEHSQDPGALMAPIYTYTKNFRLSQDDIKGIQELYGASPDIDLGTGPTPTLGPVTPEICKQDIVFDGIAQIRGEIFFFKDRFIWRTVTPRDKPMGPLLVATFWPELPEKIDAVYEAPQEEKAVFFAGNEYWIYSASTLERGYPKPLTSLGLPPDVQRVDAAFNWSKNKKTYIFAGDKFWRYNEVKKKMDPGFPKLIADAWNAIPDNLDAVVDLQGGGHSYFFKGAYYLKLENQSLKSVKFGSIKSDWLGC
Method: as §2, §3, §1

Panc-1 cells [4] = experiment: Growth and viability of Panc-1 cells (cell proliferation assay); type: cell-based, human; conditions: concentrations up to 10 μM
Method: Cell proliferation is evaluated by measuring the fluorescence intensity of propidium iodide (PI) as described previously by Zhang et al. (Cancer Lett., 142: 129-137, 1999) with minor modifications. Briefly, cells are seeded in 24-well plates at a density of 3×10^4 cells per well. After overnight cultivation, cells are irradiated and cultured for 4 days. PI (30 μM) and digitonin ([…]) are added to each well to label all nuclei of the cells with PI. Fluorescence intensity corresponding to total cells in each well is measured by a multi-well plate-reader, CYTOFLUOR II (PerSeptive Biosystems Inc., Framingham, Mass., USA) with 530-nm excitation and 645-nm emission filters. The cell proliferation rate is calculated as the proportion of fluorescence intensity of each well at the time point indicated in the text to that at the day of irradiation.
as §1

active type MMP-2 (gelatin zymography) (MMP-2 [2]): markedly decreases
enzymatic activity of latent type MMP-2 (gelatin zymography) (MMP-2 [3]): without affecting
SMILES: COc1ccc(S(=O)(=O)N(Cc2cccnc2)[C@@H](C(=O)NO)C(C)C)cc1.Cl.O [N-hydroxy-2(R)-[[4-methoxyphenylsulfonyl](3-picolyl)amino]-3-methyl-butaneamide hydrochloride)monohydrate]
increase in invaded cells after irradiation (radiation-enhanced invasion) (Panc-1 cells [1]): significantly block the increase in invaded cells after irradiation
growth and viability of Panc-1 cells (Panc-1 cells [4]): does not affect the growth and viability
